{"source": "paper PMC7181660", "about": "“A novel specific PERK activator reduces toxicity and extends survival in Huntington's disease models” (Scientific Reports, 2020)", "test_in_all_cases": "biochemical", "assay_type_in_all_cases": "biochemical", "key": {"panel of 391 kinases [1]": {"target": "panel of 391 kinases (Homo sapiens, UniProt O00506)", "details": "STK25/YSK1, MK-28 1 µM, ATP 1 µM"}, "panel of 391 kinases [2]": {"target": "panel of 391 kinases (Homo sapiens, UniProt P00519)", "details": "ABL1, MK-28 1 µM, ATP 1 µM"}, "panel of 391 kinases [3]": {"target": "panel of 391 kinases (Homo sapiens, UniProt P14616)", "details": "IRR/INSRR, MK-28 1 µM, ATP 1 µM"}, "panel of 391 kinases [4]": {"target": "panel of 391 kinases (Homo sapiens, UniProt P21709)", "details": "EPHA1, MK-28 1 µM, ATP 1 µM"}, "panel of 391 kinases [5]": {"target": "panel of 391 kinases (Homo sapiens, UniProt P50750)", "sequence (P50750 whole entry)": "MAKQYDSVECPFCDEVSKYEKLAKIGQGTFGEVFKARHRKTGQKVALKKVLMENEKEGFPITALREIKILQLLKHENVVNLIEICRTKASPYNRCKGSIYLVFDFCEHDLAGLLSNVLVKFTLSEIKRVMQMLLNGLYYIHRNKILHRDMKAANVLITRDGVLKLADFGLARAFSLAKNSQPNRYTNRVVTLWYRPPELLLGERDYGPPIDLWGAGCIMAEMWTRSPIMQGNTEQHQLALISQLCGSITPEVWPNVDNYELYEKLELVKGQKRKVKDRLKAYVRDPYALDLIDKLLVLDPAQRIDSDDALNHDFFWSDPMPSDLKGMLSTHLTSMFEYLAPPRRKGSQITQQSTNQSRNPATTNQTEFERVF", "details": "MK-28 1 µM, ATP 1 µM; for remaining activity at 1 µM: read-out: % Enzyme Activity (relative to DMSO controls)"}, "panel of 391 kinases [6]": {"target": "panel of 391 kinases (Homo sapiens, UniProt P51955)", "sequence (P51955 whole entry)": "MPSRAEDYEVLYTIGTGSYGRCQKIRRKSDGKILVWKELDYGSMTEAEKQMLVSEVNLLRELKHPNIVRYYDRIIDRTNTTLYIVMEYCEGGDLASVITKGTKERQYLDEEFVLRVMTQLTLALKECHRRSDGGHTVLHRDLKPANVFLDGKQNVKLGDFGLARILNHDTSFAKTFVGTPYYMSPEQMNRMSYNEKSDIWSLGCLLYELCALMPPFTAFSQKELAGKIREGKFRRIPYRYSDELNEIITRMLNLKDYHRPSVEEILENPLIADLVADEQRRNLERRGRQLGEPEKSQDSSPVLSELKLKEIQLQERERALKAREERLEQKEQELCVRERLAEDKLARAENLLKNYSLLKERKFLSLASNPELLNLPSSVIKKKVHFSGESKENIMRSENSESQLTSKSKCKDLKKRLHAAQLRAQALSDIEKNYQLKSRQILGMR", "details": "NEK2, MK-28 1 µM, ATP 1 µM"}, "panel of 391 kinases [7]": {"target": "panel of 391 kinases (Homo sapiens, UniProt P52333)", "details": "JAK3, MK-28 1 µM, ATP 1 µM"}, "panel of 391 kinases [8]": {"target": "panel of 391 kinases (Homo sapiens, UniProt P53667)", "sequence (P53667 whole entry)": "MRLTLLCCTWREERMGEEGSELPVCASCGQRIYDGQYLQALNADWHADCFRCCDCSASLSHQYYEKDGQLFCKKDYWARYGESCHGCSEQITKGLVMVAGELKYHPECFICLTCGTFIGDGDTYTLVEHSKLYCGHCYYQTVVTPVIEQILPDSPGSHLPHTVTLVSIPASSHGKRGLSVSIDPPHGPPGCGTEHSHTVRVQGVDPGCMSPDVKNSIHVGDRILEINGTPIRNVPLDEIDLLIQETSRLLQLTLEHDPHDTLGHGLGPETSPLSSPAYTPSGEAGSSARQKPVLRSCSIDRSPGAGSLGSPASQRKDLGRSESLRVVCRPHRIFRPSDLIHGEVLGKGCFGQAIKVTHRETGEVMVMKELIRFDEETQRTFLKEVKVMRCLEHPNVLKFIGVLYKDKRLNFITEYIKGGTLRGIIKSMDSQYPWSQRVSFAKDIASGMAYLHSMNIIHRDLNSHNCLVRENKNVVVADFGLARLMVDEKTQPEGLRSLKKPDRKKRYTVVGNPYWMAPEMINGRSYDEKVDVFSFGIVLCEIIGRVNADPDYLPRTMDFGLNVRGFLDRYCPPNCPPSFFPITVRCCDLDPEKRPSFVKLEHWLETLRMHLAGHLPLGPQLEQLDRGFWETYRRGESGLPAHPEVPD", "details": "LIMK1, MK-28 1 µM, ATP 1 µM"}, "panel of 391 kinases [9]": {"target": "panel of 391 kinases (Homo sapiens, UniProt P57078)", "sequence (P57078 whole entry)": "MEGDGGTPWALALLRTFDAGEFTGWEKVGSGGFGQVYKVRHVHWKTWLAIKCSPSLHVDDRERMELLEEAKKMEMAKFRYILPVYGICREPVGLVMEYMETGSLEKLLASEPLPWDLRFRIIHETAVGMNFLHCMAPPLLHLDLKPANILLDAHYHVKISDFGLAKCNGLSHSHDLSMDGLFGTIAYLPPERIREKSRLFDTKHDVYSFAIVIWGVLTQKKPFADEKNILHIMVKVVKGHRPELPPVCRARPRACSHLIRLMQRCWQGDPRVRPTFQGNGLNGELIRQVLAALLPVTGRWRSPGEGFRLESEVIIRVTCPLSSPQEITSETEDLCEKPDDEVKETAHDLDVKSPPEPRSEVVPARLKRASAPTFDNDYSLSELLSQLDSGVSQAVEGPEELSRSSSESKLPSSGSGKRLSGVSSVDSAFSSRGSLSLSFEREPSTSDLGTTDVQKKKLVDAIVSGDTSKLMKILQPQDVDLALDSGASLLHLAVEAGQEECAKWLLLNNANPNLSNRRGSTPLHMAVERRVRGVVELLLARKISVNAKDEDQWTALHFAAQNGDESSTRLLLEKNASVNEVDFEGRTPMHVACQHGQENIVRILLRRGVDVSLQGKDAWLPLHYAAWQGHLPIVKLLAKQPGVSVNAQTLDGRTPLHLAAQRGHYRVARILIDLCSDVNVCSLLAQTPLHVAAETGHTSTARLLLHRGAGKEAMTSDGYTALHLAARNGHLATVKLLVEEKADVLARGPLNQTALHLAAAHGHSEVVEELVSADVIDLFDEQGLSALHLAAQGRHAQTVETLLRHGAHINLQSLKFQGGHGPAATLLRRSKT", "details": "RIPK4, MK-28 1 µM, ATP 1 µM"}, "panel of 391 kinases [10]": {"target": "panel of 391 kinases (Homo sapiens, UniProt P78362)", "sequence (P78362 whole entry)": "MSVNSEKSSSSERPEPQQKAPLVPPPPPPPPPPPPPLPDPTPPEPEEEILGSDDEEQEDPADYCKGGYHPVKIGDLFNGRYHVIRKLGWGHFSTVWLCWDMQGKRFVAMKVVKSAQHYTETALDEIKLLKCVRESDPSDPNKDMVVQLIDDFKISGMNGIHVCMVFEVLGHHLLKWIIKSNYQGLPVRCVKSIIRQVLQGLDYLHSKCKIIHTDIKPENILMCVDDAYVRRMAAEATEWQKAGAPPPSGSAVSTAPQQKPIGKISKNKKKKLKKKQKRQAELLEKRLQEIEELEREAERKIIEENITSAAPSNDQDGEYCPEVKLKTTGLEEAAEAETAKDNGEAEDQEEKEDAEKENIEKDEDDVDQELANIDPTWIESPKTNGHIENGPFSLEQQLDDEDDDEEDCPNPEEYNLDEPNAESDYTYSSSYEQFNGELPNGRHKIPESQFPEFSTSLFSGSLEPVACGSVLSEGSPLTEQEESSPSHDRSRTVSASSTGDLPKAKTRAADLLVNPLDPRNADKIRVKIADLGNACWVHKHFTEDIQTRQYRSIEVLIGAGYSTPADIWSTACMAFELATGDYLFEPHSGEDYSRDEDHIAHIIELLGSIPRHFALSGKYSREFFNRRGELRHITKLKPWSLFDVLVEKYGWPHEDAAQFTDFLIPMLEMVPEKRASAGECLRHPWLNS", "details": "SRPK2, MK-28 1 µM, ATP 1 µM"}, "panel of 391 kinases [11]": {"target": "panel of 391 kinases (Homo sapiens, UniProt Q13233)", "details": "MEKK1, MK-28 1 µM, ATP 1 µM"}, "panel of 391 kinases [12]": {"target": "panel of 391 kinases (Homo sapiens, UniProt Q13554)", "sequence (Q13554 whole entry)": "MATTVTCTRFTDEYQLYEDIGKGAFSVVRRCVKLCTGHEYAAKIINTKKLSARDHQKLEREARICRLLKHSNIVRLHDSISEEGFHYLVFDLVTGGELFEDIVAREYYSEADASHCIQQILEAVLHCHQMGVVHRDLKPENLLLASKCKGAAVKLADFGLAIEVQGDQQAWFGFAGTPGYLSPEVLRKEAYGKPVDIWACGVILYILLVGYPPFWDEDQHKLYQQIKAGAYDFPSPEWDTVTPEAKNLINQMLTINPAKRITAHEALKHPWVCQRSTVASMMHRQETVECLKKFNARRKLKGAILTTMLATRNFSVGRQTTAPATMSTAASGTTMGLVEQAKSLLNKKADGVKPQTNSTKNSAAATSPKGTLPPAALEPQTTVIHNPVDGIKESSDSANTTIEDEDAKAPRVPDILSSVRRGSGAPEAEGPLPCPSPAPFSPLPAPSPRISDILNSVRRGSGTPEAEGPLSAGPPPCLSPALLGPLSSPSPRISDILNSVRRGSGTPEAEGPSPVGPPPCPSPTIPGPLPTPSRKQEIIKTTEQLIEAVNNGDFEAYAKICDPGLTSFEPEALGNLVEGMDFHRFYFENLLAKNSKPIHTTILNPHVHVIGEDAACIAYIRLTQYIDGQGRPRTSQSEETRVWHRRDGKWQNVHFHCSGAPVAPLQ", "details": "CAMK2b, MK-28 1 µM, ATP 1 µM"}, "panel of 391 kinases [13]": {"target": "panel of 391 kinases (Homo sapiens, UniProt Q13557)", "details": "CAMK2d, MK-28 1 µM, ATP 1 µM"}, "panel of 391 kinases [14]": {"target": "panel of 391 kinases (Homo sapiens, UniProt Q8NG66)", "details": "NEK11, MK-28 1 µM, ATP 1 µM"}, "panel of 391 kinases [15]": {"target": "panel of 391 kinases (Homo sapiens, UniProt Q9BYT3)", "details": "STK33, MK-28 1 µM, ATP 1 µM"}, "panel of 391 kinases [16]": {"target": "panel of 391 kinases (Homo sapiens, UniProt Q9H2G2)", "details": "SLK/STK2, MK-28 1 µM, ATP 1 µM"}, "panel of 391 kinases [17]": {"target": "panel of 391 kinases (Homo sapiens, UniProt Q9H4A3)", "details": "WNK1, MK-28 1 µM, ATP 1 µM"}, "panel of 391 kinases [18]": {"target": "panel of 391 kinases (Homo sapiens, UniProt Q9H4B4)", "sequence (Q9H4B4 whole entry)": "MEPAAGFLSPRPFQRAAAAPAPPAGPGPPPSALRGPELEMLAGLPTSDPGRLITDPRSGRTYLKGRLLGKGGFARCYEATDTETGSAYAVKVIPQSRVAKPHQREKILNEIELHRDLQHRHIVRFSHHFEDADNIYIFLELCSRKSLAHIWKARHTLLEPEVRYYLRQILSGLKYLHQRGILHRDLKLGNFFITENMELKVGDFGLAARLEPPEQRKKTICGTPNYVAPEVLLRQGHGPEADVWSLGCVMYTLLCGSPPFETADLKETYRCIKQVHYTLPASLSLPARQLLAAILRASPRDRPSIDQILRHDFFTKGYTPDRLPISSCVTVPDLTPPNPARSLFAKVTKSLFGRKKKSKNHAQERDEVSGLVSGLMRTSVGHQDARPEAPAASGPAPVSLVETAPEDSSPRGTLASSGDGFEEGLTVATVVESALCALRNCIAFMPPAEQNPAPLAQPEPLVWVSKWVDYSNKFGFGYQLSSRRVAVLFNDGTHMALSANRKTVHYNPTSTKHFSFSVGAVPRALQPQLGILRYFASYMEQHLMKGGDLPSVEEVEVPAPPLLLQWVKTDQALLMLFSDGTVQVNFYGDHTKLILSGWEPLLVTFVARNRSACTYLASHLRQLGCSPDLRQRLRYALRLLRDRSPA", "details": "PLK3, MK-28 1 µM, ATP 1 µM"}, "panel of 391 kinases [19]": {"target": "T1, panel of 391 kinases (Homo sapiens, UniProt Q9NR20)", "T1 sequence (Q9NR20 1-520)": "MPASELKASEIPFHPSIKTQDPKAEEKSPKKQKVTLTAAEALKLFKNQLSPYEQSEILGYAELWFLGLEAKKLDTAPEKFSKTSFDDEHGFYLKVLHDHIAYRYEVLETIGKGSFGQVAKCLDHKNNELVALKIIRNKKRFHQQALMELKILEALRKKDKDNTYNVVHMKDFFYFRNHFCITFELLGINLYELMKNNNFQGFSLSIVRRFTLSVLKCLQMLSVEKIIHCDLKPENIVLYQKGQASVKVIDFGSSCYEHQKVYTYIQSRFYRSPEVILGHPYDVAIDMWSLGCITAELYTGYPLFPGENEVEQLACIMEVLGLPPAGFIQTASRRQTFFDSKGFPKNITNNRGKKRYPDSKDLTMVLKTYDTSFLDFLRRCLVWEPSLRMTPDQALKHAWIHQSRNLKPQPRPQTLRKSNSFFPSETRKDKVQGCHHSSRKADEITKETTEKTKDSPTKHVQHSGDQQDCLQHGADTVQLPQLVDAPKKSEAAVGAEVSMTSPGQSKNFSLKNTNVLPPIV", "details": "DYRK4, MK-28 1 µM, ATP 1 µM"}, "panel of 391 kinases [20]": {"target": "panel of 391 kinases (Homo sapiens, UniProt Q9NRH2)", "details": "SNRK, MK-28 1 µM, ATP 1 µM"}, "panel of 391 kinases [21]": {"target": "panel of 391 kinases (Homo sapiens, UniProt Q9UPZ9)", "details": "LCK2/ICK, MK-28 1 µM, ATP 1 µM"}, "panel of 391 kinases [22]": {"target": "panel of 391 kinases (Homo sapiens, UniProt Q9Y243)", "sequence (Q9Y243 whole entry)": "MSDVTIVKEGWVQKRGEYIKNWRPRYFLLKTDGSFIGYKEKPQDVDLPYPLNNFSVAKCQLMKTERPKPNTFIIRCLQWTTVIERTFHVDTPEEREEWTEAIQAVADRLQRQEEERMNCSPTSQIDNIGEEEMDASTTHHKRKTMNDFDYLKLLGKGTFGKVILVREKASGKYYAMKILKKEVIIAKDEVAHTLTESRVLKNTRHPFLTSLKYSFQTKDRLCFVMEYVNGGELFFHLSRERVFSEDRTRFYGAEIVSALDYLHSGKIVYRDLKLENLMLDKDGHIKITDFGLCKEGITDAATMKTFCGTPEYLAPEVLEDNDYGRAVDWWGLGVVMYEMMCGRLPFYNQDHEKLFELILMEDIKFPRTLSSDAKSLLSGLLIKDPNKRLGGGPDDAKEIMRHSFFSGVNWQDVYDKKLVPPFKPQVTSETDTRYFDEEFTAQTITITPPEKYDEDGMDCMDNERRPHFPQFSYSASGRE", "details": "AKT3, MK-28 1 µM, ATP 1 µM"}, "[23]": {"details": "read-out: % Enzyme Activity (relative to DMSO controls)"}}, "note": "Read-outs that look alike come from different tables or passages of the source.", "data": [{"molecule": "CN(/N=C\\c1ccc(O)c(O)c1)c1nc(-c2ccccc2)cc(-c2ccccc2)n1", "note": "[MK-28]", "values": [{"measurement": "% Enzyme Activity (relative to DMSO controls)", "setting": "panel of 391 kinases [1]", "value": 93.29, "unit": "%"}, {"measurement": "remaining activity at 1 µM", "setting": "panel of 391 kinases [1]; [23]", "value": 95.7, "unit": "%"}, {"measurement": "% Enzyme Activity (relative to DMSO controls)", "setting": "panel of 391 kinases [2]", "value": 94.94, "unit": "%"}, {"measurement": "remaining activity at 1 µM", "setting": "panel of 391 kinases [2]; [23]", "value": 98.9, "unit": "%"}, {"measurement": "% Enzyme Activity (relative to DMSO controls)", "setting": "panel of 391 kinases [3]", "value": 82.69, "unit": "%"}, {"measurement": "remaining activity at 1 µM", "setting": "panel of 391 kinases [3]; [23]", "value": 85.9, "unit": "%"}, {"measurement": "% Enzyme Activity (relative to DMSO controls)", "setting": "panel of 391 kinases [4]", "value": 99.87, "unit": "%"}, {"measurement": "remaining activity at 1 µM", "setting": "panel of 391 kinases [4]; [23]", "value": 102, "unit": "%"}, {"measurement": "% Enzyme Activity (relative to DMSO controls)", "setting": "panel of 391 kinases [5]; CDK9/cyclin K", "value": 95.35, "unit": "%"}, {"measurement": "remaining activity at 1 µM", "setting": "panel of 391 kinases [5]; CDK9/cyclin K", "value": 96.1, "unit": "%"}, {"measurement": "% Enzyme Activity (relative to DMSO controls)", "setting": "panel of 391 kinases [5]; CDK9/cyclin T1", "value": 83.98, "unit": "%"}, {"measurement": "remaining activity at 1 µM", "setting": "panel of 391 kinases [5]; CDK9/cyclin T1", "value": 84.2, "unit": "%"}, {"measurement": "% Enzyme Activity (relative to DMSO controls)", "setting": "panel of 391 kinases [5]; CDK9/cyclin T2", "value": 97.55, "unit": "%"}, {"measurement": "remaining activity at 1 µM", "setting": "panel of 391 kinases [5]; CDK9/cyclin T2", "value": 103, "unit": "%"}, {"measurement": "% Enzyme Activity (relative to DMSO controls)", "setting": "panel of 391 kinases [6]", "value": 98.55, "unit": "%"}, {"measurement": "remaining activity at 1 µM", "setting": "panel of 391 kinases [6]; [23]", "value": 99.2, "unit": "%"}, {"measurement": "% Enzyme Activity (relative to DMSO controls)", "setting": "panel of 391 kinases [7]", "value": 104.48, "unit": "%"}, {"measurement": "remaining activity at 1 µM", "setting": "panel of 391 kinases [7]; [23]", "value": 106, "unit": "%"}, {"measurement": "% Enzyme Activity (relative to DMSO controls)", "setting": "panel of 391 kinases [8]", "value": 93.55, "unit": "%"}, {"measurement": "remaining activity at 1 µM", "setting": "panel of 391 kinases [8]; [23]", "value": 101, "unit": "%"}, {"measurement": "% Enzyme Activity (relative to DMSO controls)", "setting": "panel of 391 kinases [9]", "value": 89.94, "unit": "%"}, {"measurement": "remaining activity at 1 µM", "setting": "panel of 391 kinases [9]; [23]", "value": 95.1, "unit": "%"}, {"measurement": "% Enzyme Activity (relative to DMSO controls)", "setting": "panel of 391 kinases [10]", "value": 102.82, "unit": "%"}, {"measurement": "remaining activity at 1 µM", "setting": "panel of 391 kinases [10]; [23]", "value": 106, "unit": "%"}, {"measurement": "% Enzyme Activity (relative to DMSO controls)", "setting": "panel of 391 kinases [11]", "value": 92.45, "unit": "%"}, {"measurement": "remaining activity at 1 µM", "setting": "panel of 391 kinases [11]; [23]", "value": 95.1, "unit": "%"}, {"measurement": "% Enzyme Activity (relative to DMSO controls)", "setting": "panel of 391 kinases [12]", "value": 93.40, "unit": "%"}, {"measurement": "remaining activity at 1 µM", "setting": "panel of 391 kinases [12]; [23]", "value": 98, "unit": "%"}, {"measurement": "% Enzyme Activity (relative to DMSO controls)", "setting": "panel of 391 kinases [13]", "value": 94.06, "unit": "%"}, {"measurement": "remaining activity at 1 µM", "setting": "panel of 391 kinases [13]; [23]", "value": 94.2, "unit": "%"}, {"measurement": "% Enzyme Activity (relative to DMSO controls)", "setting": "panel of 391 kinases [14]", "value": 90.54, "unit": "%"}, {"measurement": "remaining activity at 1 µM", "setting": "panel of 391 kinases [14]; [23]", "value": 93.3, "unit": "%"}, {"measurement": "% Enzyme Activity (relative to DMSO controls)", "setting": "panel of 391 kinases [15]", "value": 91.70, "unit": "%"}, {"measurement": "remaining activity at 1 µM", "setting": "panel of 391 kinases [15]; [23]", "value": 95.4, "unit": "%"}, {"measurement": "% Enzyme Activity (relative to DMSO controls)", "setting": "panel of 391 kinases [16]", "value": 100.63, "unit": "%"}, {"measurement": "remaining activity at 1 µM", "setting": "panel of 391 kinases [16]; [23]", "value": 102, "unit": "%"}, {"measurement": "% Enzyme Activity (relative to DMSO controls)", "setting": "panel of 391 kinases [17]", "value": 103.91, "unit": "%"}, {"measurement": "remaining activity at 1 µM", "setting": "panel of 391 kinases [17]; [23]", "value": 104, "unit": "%"}, {"measurement": "% Enzyme Activity (relative to DMSO controls)", "setting": "panel of 391 kinases [18]", "value": 87.19, "unit": "%"}, {"measurement": "remaining activity at 1 µM", "setting": "panel of 391 kinases [18]; [23]", "value": 91.2, "unit": "%"}, {"measurement": "% Enzyme Activity (relative to DMSO controls)", "setting": "panel of 391 kinases [19]", "value": 99.42, "unit": "%"}, {"measurement": "remaining activity at 1 µM", "setting": "panel of 391 kinases [19]; [23]", "value": 101, "unit": "%"}, {"measurement": "% Enzyme Activity (relative to DMSO controls)", "setting": "panel of 391 kinases [20]", "value": 99.62, "unit": "%"}, {"measurement": "remaining activity at 1 µM", "setting": "panel of 391 kinases [20]; [23]", "value": 100, "unit": "%"}, {"measurement": "% Enzyme Activity (relative to DMSO controls)", "setting": "panel of 391 kinases [21]", "value": 99.01, "unit": "%"}, {"measurement": "remaining activity at 1 µM", "setting": "panel of 391 kinases [21]; [23]", "value": 99.2, "unit": "%"}, {"measurement": "% Enzyme Activity (relative to DMSO controls)", "setting": "panel of 391 kinases [22]", "value": 81.92, "unit": "%"}, {"measurement": "remaining activity at 1 µM", "setting": "panel of 391 kinases [22]; [23]", "value": 82.2, "unit": "%"}]}]}
